Experimental data reported in ChEMBL document CHEMBL1201862, “PubChem BioAssay data set” (2004).
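Exposure lasted 48 hours, with cells grown in 96-well plates and compounds tested at five concentrations. At the GI50, growth is halved.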 The source made the active and inactive calls. Rule as the data show it: active = GI50 up to about 1.1 µM and inactive = higher.

Columns and labels:
Assay in all cases: NCI tumour cell line growth inhibition, 48 h
NCI-H226 = test system: NCI-H226
ACHN = test system: ACHN
K562 = test system: K562
KM12 = test system: KM12
A549 = test system: A549
SNB-19 = test system: SNB-19
Malme-3M = test system: Malme-3M
HOP-18 = test system: HOP-18
HCT-15 = test system: HCT-15
M19-MEL = test system: M19-MEL
SF-268 = test system: SF-268
HOP-62 = test system: HOP-62
CCRF-CEM = test system: CCRF-CEM
SK-MEL-2 = test system: SK-MEL-2
TK-10 = test system: TK-10
SK-MEL-28 = test system: SK-MEL-28
MOLT-4 = test system: MOLT-4
SNB-75 = test system: SNB-75
HCC 2998 = test system: HCC 2998
RPMI-8226 = test system: RPMI-8226
NCI-H522 = test system: NCI-H522
DLD-1 = test system: DLD-1
CAKI-1 = test system: CAKI-1
OVCAR-4 = test system: OVCAR-4
DMS-114 = test system: DMS-114
NCI-H460 = test system: NCI-H460
EKVX = test system: EKVX
LOX IMVI = test system: LOX IMVI
DMS-273 = test system: DMS-273
SF-539 = test system: SF-539
SW-620 = test system: SW-620
HT-29 = test system: HT-29
HL-60 = test system: HL-60
UACC-257 = test system: UACC-257
OVCAR-3 = test system: OVCAR-3
SF-295 = test system: SF-295
OVCAR-5 = test system: OVCAR-5
UO-31 = test system: UO-31
M14 = test system: M14
SN12C = test system: SN12C
786-0 = test system: 786-0
SR = test system: SR
XF498 = test system: XF498
SK-MEL-5 = test system: SK-MEL-5
HCT-116 = test system: HCT-116
COLO 205 = test system: COLO 205
OVCAR-8 = test system: OVCAR-8
Hs-578T = test system: Hs-578T
MDA-MB-231 = test system: MDA-MB-231
NCI/ADR-RES = test system: NCI/ADR-RES
MDA-N = test system: MDA-N
LXFL 529 = test system: LXFL 529
PC-3 = test system: PC-3
MCF7 = test system: MCF7
KM-20L2 = test system: KM-20L2
SNB-78 = test system: SNB-78
RXF 393 = test system: RXF 393
BT-549 = test system: BT-549
DU-145 = test system: DU-145
HOP-92 = test system: HOP-92
T47D = test system: T47D
SK-OV-3 = test system: SK-OV-3
UACC-62 = test system: UACC-62
U-251 = test system: U-251
A498 = test system: A498
MDA-MB-435 = test system: MDA-MB-435
NCI-H23 = test system: NCI-H23
IGROV-1 = test system: IGROV-1

For C/C(=N/N)c1ccc2[nH]c3c(C)cc([N+](=O)[O-])c(C)c3c2c1, the GI50 (NCI-H226) was 14.3 µM (inactive), the GI50 (ACHN) was 9.38 µM (inactive) and the GI50 (K562) was 2.93 µM (inactive). For the same compound, the GI50 (KM12) was > 10 µM (inactive), the GI50 (A549) was 11.1 µM (inactive) and the GI50 (SNB-19) was 14.4 µM (inactive). For the same compound, the GI50 (Malme-3M) was 4.33 µM (inactive), the GI50 (HOP-18) was 10.7 µM (inactive) and the GI50 (HCT-15) was 9.55 µM. For the same compound, the GI50 (M19-MEL) was 11.3 µM (inactive), the GI50 (SF-268) was 8.22 µM (inactive) and the GI50 (HOP-62) was 8.07 µM (inactive). For the same compound, the GI50 (CCRF-CEM) was 3.13 µM (inactive), the GI50 (SK-MEL-2) was 11.3 µM (inactive) and the GI50 (TK-10) was 12.2 µM (inactive). The GI50 (SK-MEL-28) was 6.07 µM (inactive), the GI50 (MOLT-4) was 2.79 µM (inactive) and the GI50 (SNB-75) was 22.9 µM (inactive). The GI50 (HCC 2998) was 17.5 µM (inactive), the GI50 (RPMI-8226) was 8.97 µM (inactive) and the GI50 (NCI-H522) was 8.51 µM (inactive). For the same compound, the GI50 (DLD-1) was 3.18 µM (inactive), the GI50 (CAKI-1) was > 10 µM (inactive) and the GI50 (OVCAR-4) was 14.8 µM (inactive). The GI50 (DMS-114) was 9.89 µM (inactive), the GI50 (NCI-H460) was 5.87 µM (inactive) and the GI50 (EKVX) was 22.2 µM (inactive). For the same compound, the GI50 (LOX IMVI) was 4.99 µM (inactive), the GI50 (DMS-273) was 4.52 µM (inactive) and the GI50 (SF-539) was 4.76 µM (inactive). The GI50 (SW-620) was 7.53 µM (inactive), the GI50 (HT-29) was 8.2 µM (inactive) and the GI50 (HL-60) was > 100 µM (inactive). For the same compound, the GI50 (UACC-257) was 18.6 µM (inactive), the GI50 (OVCAR-3) was 14.9 µM (inactive) and the GI50 (SF-295) was 17.1 µM (inactive). For the same compound, the GI50 (OVCAR-5) was > 10 µM (inactive), the GI50 (UO-31) was 10.5 µM (inactive) and the GI50 (M14) was 15 µM (inactive). For the same compound, the GI50 (SN12C) was 3.95 µM (inactive), the GI50 (786-0) was 4.6 µM (inactive) and the GI50 (SR) was 5.83 µM (inactive). The GI50 (XF498) was 11.4 µM (inactive), the GI50 (SK-MEL-5) was 5 µM (inactive) and the GI50 (HCT-116) was 4.09 µM (inactive). For the same compound, the GI50 (COLO 205) was 11.5 µM (inactive) and the GI50 (OVCAR-8) was 5.3 µM (inactive).
With O=P(NC12CC3CC(CC(C3)C1)C2)(N1CC1)N1CC1 the GI50 (NCI-H226) was 41.6 µM (inactive), the GI50 (ACHN) was 4.67 µM (inactive) and the GI50 (Hs-578T) was 89.3 µM (inactive). For the same compound, the GI50 (MDA-MB-231) was > 100 µM (inactive), the GI50 (NCI/ADR-RES) was 53 µM (inactive) and the GI50 (K562) was 37.6 µM (inactive). For the same compound, the GI50 (MDA-N) was > 100 µM (inactive), the GI50 (KM12) was > 100 µM (inactive) and the GI50 (A549) was 26.5 µM (inactive). For the same compound, the GI50 (SNB-19) was 17.1 µM (inactive), the GI50 (LXFL 529) was 64.4 µM (inactive) and the GI50 (PC-3) was > 100 µM (inactive). For the same compound, the GI50 (Malme-3M) was 84.9 µM (inactive), the GI50 (HOP-18) was > 100 µM (inactive) and the GI50 (MCF7) was 9.71 µM (inactive). For the same compound, the GI50 (HCT-15) was greater than 68.5 µM, the GI50 (M19-MEL) was > 100 µM (inactive) and the GI50 (SF-268) was 12.3 µM (inactive). For the same compound, the GI50 (HOP-62) was 12.8 µM (inactive), the GI50 (CCRF-CEM) was 7.24 µM (inactive) and the GI50 (SK-MEL-2) was > 100 µM (inactive). For the same compound, the GI50 (KM-20L2) was > 100 µM (inactive), the GI50 (TK-10) was > 100 µM (inactive) and the GI50 (SK-MEL-28) was > 100 µM (inactive). The GI50 (MOLT-4) was 3.3 µM (inactive), the GI50 (SNB-78) was > 100 µM (inactive) and the GI50 (RXF 393) was 15.4 µM (inactive). The GI50 (SNB-75) was 22.4 µM (inactive), the GI50 (BT-549) was > 100 µM (inactive) and the GI50 (HCC 2998) was > 100 µM (inactive). The GI50 (DU-145) was 6.31 µM (inactive), the GI50 (RPMI-8226) was > 66.1 µM (inactive) and the GI50 (NCI-H522) was 25.7 µM (inactive). The GI50 (HOP-92) was 18.5 µM (inactive), the GI50 (DLD-1) was 80.5 µM (inactive) and the GI50 (CAKI-1) was 1.82 µM (inactive). For the same compound, the GI50 (OVCAR-4) was > 100 µM (inactive), the GI50 (DMS-114) was 50.9 µM (inactive) and the GI50 (NCI-H460) was 2.46 µM (inactive). For the same compound, the GI50 (T47D) was 94.8 µM (inactive), the GI50 (EKVX) was > 100 µM (inactive) and the GI50 (LOX IMVI) was 11.1 µM (inactive). For the same compound, the GI50 (DMS-273) was 6.07 µM (inactive), the GI50 (SF-539) was 15.9 µM (inactive) and the GI50 (SW-620) was > 86.5 µM (inactive). For the same compound, the GI50 (SK-OV-3) was > 55.5 µM (inactive), the GI50 (UACC-62) was 4.16 µM (inactive) and the GI50 (U-251) was 27.4 µM (inactive). The GI50 (A498) was 45.5 µM (inactive), the GI50 (MDA-MB-435) was > 100 µM (inactive) and the GI50 (HT-29) was 21.2 µM (inactive). The GI50 (HL-60) was 3.09 µM (inactive), the GI50 (UACC-257) was > 100 µM (inactive) and the GI50 (OVCAR-3) was > 86.1 µM (inactive). The GI50 (SF-295) was 10 µM (inactive), the GI50 (OVCAR-5) was > 100 µM (inactive) and the GI50 (UO-31) was 30.5 µM (inactive). The GI50 (M14) was 37.1 µM (inactive), the GI50 (SN12C) was 10.5 µM (inactive) and the GI50 (786-0) was 23.2 µM (inactive). For the same compound, the GI50 (NCI-H23) was 6.05 µM (inactive), the GI50 (SR) was 2.05 µM (inactive) and the GI50 (IGROV-1) was > 92.9 µM (inactive). The GI50 (SK-MEL-5) was 34.9 µM (inactive), the GI50 (HCT-116) was 43.7 µM (inactive) and the GI50 (COLO 205) was > 100 µM (inactive). The GI50 (OVCAR-8) was 43 µM (inactive).
